Among the data in the supplement of paper PMC10307832 are relative viability values, retold here.

Holding throughout (experiment): relative viability (nuclei count vs DMSO), 5 days (fraction); higher = more cells survive
Compound in assay [1]: CC1=C(C(=NN1)C)CC2=C(C3=C(S2)N(C(=O)N(C3=O)C)CC(C)C)C(=O)N4C[C@@H](CO4)O + O=C(CCCCCCC(=O)Nc1ccccc1)NO [Vorinostat] (partner 1 µM)
In a few lines: (§1)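 The day after seeding in 1536-well plates, lung cancer cell lines were treated by pin tool with a single drug, or with a fixed anchor-drug dose together with five library-drug doses (not always all listed) in √10 steps. After 5 days, a combined fix-and-stain solution (final 0.05% Triton X-100, 1% formaldehyde, 1 ug/ml Hoechst) was added. Nuclei counted on 4× images gave relative viability as treated counts over vehicle counts, reported as the median of duplicate plates.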

Compound in the assay “IDH-C35 + Decitabine”: Cc1ccccc1C(C(=O)NC1CCCCC1)N(C(=O)Cn1ccnc1C)c1cccc(F)c1 [IDH-C35] + Nc1ncn([C@H]2C[C@H](O)[C@@H](CO)O2)c(=O)n1 [Decitabine] (partner 2 µM)
Put shortly: as §1

Compound in the assay “IDH-C35 + Vorinostat”: Cc1ccccc1C(C(=O)NC1CCCCC1)N(C(=O)Cn1ccnc1C)c1cccc(F)c1 [IDH-C35] + O=C(CCCCCCC(=O)Nc1ccccc1)NO [Vorinostat] (partner 1 µM)
Put shortly:
as §1

Compound in the assay “IDH-C35 + Dasatinib”: Cc1ccccc1C(C(=O)NC1CCCCC1)N(C(=O)Cn1ccnc1C)c1cccc(F)c1 [IDH-C35] + Cc1nc(Nc2ncc(C(=O)Nc3c(C)cccc3Cl)s2)cc(N2CCN(CCO)CC2)n1 [Dasatinib] (partner 0.075 µM)
Put shortly:
as §1

For NCI-H322M, the relative viability in assay [1] (first compound 0.0025 µM) is 0.876; in assay [1] (first compound 0.007906 µM), 0.821; in assay [1] (first compound 0.025 µM), 0.857; in assay [1] (first compound 0.07906 µM), 0.953; in assay [1] (first compound 0.25 µM), 0.801; with IDH-C35 + Decitabine (first compound 0.08 µM), 0.686. In addition, the relative viability with IDH-C35 + Decitabine (first compound 0.253 µM) came out at 0.701; with IDH-C35 + Decitabine (first compound 0.8 µM), 0.695; in the assay with IDH-C35 + Decitabine (first compound 2.53 µM), 0.718; with IDH-C35 + Decitabine (first compound 8 µM), 0.78; with IDH-C35 + Vorinostat (first compound 0.08 µM), 0.875; with IDH-C35 + Vorinostat (first compound 0.253 µM), 0.866. In addition, the relative viability was 0.798 in the assay with IDH-C35 + Vorinostat (first compound 0.8 µM); 0.911 with IDH-C35 + Vorinostat (first compound 2.53 µM); 0.922 with IDH-C35 + Vorinostat (first compound 8 µM); 0.244 with IDH-C35 + Dasatinib (first compound 0.08 µM); 0.253 with IDH-C35 + Dasatinib (first compound 0.253 µM); 0.26 with IDH-C35 + Dasatinib (first compound 0.8 µM). The relative viability with IDH-C35 + Dasatinib (first compound 2.53 µM) stood at 0.247; with IDH-C35 + Dasatinib (first compound 8 µM) it was 0.243.
Regarding NCI-H2170, the relative viability was determined as 0.82 in assay [1] (first compound 0.0025 µM); 0.792 in assay [1] (first compound 0.007906 µM); 0.779 in assay [1] (first compound 0.025 µM); 0.749 in assay [1] (first compound 0.07906 µM); 0.864 in assay [1] (first compound 0.25 µM); 0.428 in the assay with IDH-C35 + Decitabine (first compound 0.08 µM). In addition, the relative viability with IDH-C35 + Decitabine (first compound 0.253 µM) stood at 0.451; with IDH-C35 + Decitabine (first compound 0.8 µM), 0.482; with IDH-C35 + Decitabine (first compound 2.53 µM), 0.507; with IDH-C35 + Decitabine (first compound 8 µM), 0.457; in the assay with IDH-C35 + Vorinostat (first compound 0.08 µM), 0.796; with IDH-C35 + Vorinostat (first compound 0.253 µM), 0.809. The relative viability with IDH-C35 + Vorinostat (first compound 0.8 µM) was found to be 0.804; with IDH-C35 + Vorinostat (first compound 2.53 µM), 0.844; with IDH-C35 + Vorinostat (first compound 8 µM) it was 0.85; with IDH-C35 + Dasatinib (first compound 0.08 µM) it was 0.542; with IDH-C35 + Dasatinib (first compound 0.253 µM), 0.594; with IDH-C35 + Dasatinib (first compound 0.8 µM), 0.594. The figures for the relative viability in the assay with IDH-C35 + Dasatinib (first compound 2.53 µM) and with IDH-C35 + Dasatinib (first compound 8 µM) were 0.678 and 0.538, respectively.
Take SW 900: the relative viability was 0.558 in assay [1] (first compound 0.0025 µM); 0.55 in assay [1] (first compound 0.007906 µM); 0.534 in assay [1] (first compound 0.025 µM); 0.504 in assay [1] (first compound 0.07906 µM); 0.445 in assay [1] (first compound 0.25 µM); 0.467 with IDH-C35 + Decitabine (first compound 0.08 µM). Also, the relative viability with IDH-C35 + Decitabine (first compound 0.253 µM) worked out at 0.396; with IDH-C35 + Decitabine (first compound 2.53 µM), 0.472; with IDH-C35 + Decitabine (first compound 8 µM), 0.438; with IDH-C35 + Vorinostat (first compound 0.08 µM), 0.496; in the assay with IDH-C35 + Vorinostat (first compound 0.253 µM) it was 0.44; with IDH-C35 + Vorinostat (first compound 2.53 µM), 0.505. Also, the relative viability with IDH-C35 + Vorinostat (first compound 8 µM) came to 0.529; with IDH-C35 + Dasatinib (first compound 0.08 µM), 0.534; in the assay with IDH-C35 + Dasatinib (first compound 0.253 µM), 0.764; with IDH-C35 + Dasatinib (first compound 0.8 µM), 0.478; with IDH-C35 + Dasatinib (first compound 2.53 µM) it was 0.578; with IDH-C35 + Dasatinib (first compound 8 µM) it was 0.552.
As for NCI-H1395, the relative viability in assay [1] (first compound 0.0025 µM) worked out at 0.75; in assay [1] (first compound 0.007906 µM) it was 0.663; in assay [1] (first compound 0.025 µM), 0.508; in assay [1] (first compound 0.07906 µM) it was 0.756; in assay [1] (first compound 0.25 µM), 0.683; with IDH-C35 + Decitabine (first compound 0.08 µM) it was 0.695. In addition, the relative viability with IDH-C35 + Decitabine (first compound 0.253 µM) was determined as 0.649; with IDH-C35 + Decitabine (first compound 0.8 µM), 0.676; with IDH-C35 + Decitabine (first compound 2.53 µM), 0.754; with IDH-C35 + Decitabine (first compound 8 µM), 0.653; in the assay with IDH-C35 + Vorinostat (first compound 0.08 µM) it was 0.773; with IDH-C35 + Vorinostat (first compound 0.253 µM) it was 0.694. Moreover, the relative viability with IDH-C35 + Vorinostat (first compound 0.8 µM) came out at 0.707; in the assay with IDH-C35 + Vorinostat (first compound 2.53 µM) it was 0.927; in the assay with IDH-C35 + Vorinostat (first compound 8 µM) it was 0.766; with IDH-C35 + Dasatinib (first compound 0.08 µM) it was 0.416; with IDH-C35 + Dasatinib (first compound 0.253 µM), 0.376; in the assay with IDH-C35 + Dasatinib (first compound 0.8 µM) it was 0.4. Also, the results for the relative viability with IDH-C35 + Dasatinib (first compound 2.53 µM) and in the assay with IDH-C35 + Dasatinib (first compound 8 µM) were 0.41 and 0.381, respectively.
Regarding NCI-H358, the relative viability in assay [1] (first compound 0.0025 µM) was determined as 0.704; in assay [1] (first compound 0.007906 µM), 0.575; in assay [1] (first compound 0.025 µM), 0.677; in assay [1] (first compound 0.07906 µM) it was 0.803; in assay [1] (first compound 0.25 µM) it was 0.836; with IDH-C35 + Decitabine (first compound 0.08 µM), 0.216. Further, the relative viability with IDH-C35 + Decitabine (first compound 0.253 µM) was found to be 0.192; in the assay with IDH-C35 + Decitabine (first compound 0.8 µM) it was 0.234; with IDH-C35 + Decitabine (first compound 2.53 µM), 0.211; in the assay with IDH-C35 + Decitabine (first compound 8 µM), 0.213; with IDH-C35 + Vorinostat (first compound 0.08 µM), 0.709; with IDH-C35 + Vorinostat (first compound 0.253 µM), 0.659. The relative viability with IDH-C35 + Vorinostat (first compound 0.8 µM) is 0.686; with IDH-C35 + Vorinostat (first compound 2.53 µM) it was 0.614; in the assay with IDH-C35 + Vorinostat (first compound 8 µM) it was 0.611; with IDH-C35 + Dasatinib (first compound 0.08 µM), 0.205; with IDH-C35 + Dasatinib (first compound 0.253 µM), 0.159; with IDH-C35 + Dasatinib (first compound 0.8 µM), 0.141. The relative viability is 0.193 in the assay with IDH-C35 + Dasatinib (first compound 2.53 µM) and 0.169 in the assay with IDH-C35 + Dasatinib (first compound 8 µM).
For NCI-H838, the relative viability in assay [1] (first compound 0.0025 µM) is 0.696; in assay [1] (first compound 0.007906 µM), 0.75; in assay [1] (first compound 0.025 µM), 0.691; in assay [1] (first compound 0.07906 µM), 0.777; in assay [1] (first compound 0.25 µM), 0.704; in the assay with IDH-C35 + Decitabine (first compound 0.08 µM) it was 0.446. Further, the relative viability with IDH-C35 + Decitabine (first compound 0.253 µM) came out at 0.414; with IDH-C35 + Decitabine (first compound 0.8 µM), 0.468; in the assay with IDH-C35 + Decitabine (first compound 2.53 µM), 0.464; with IDH-C35 + Decitabine (first compound 8 µM), 0.486; with IDH-C35 + Vorinostat (first compound 0.08 µM), 0.706; in the assay with IDH-C35 + Vorinostat (first compound 0.253 µM), 0.675. The relative viability with IDH-C35 + Vorinostat (first compound 0.8 µM) came to 0.718; with IDH-C35 + Vorinostat (first compound 2.53 µM), 0.763; with IDH-C35 + Vorinostat (first compound 8 µM) it was 0.72; in the assay with IDH-C35 + Dasatinib (first compound 0.08 µM) it was 0.343; with IDH-C35 + Dasatinib (first compound 0.253 µM), 0.303; in the assay with IDH-C35 + Dasatinib (first compound 0.8 µM), 0.298. Also, the relative viability in the assay with IDH-C35 + Dasatinib (first compound 2.53 µM) worked out at 0.32; with IDH-C35 + Dasatinib (first compound 8 µM), 0.303.
